Laboratory results: paper PMC10518257 (Nature Cancer, 2023)
Values joined by “and” are separate entries in the source; they are usually repeats but may differ in a detail not shown here. Identical values can stand only once. Like-named read-outs stand apart in the source and are kept apart here.

How the values were obtained:
[1] = Animal weight of tumor-bearing mice; conditions: for Animal Weight (g), Mean: Ba/F3-KIF5B::RET tumor-bearing mice (Ext. Data Fig 8h); for Animal Weight: individual animals
LUAD-0002AS1 cells = assay: Growth inhibition (alamarBlue, 96 h); format: cell-based, human; conditions: for raw viability signal (Source Data Fig. 3b-c): LUAD-0002AS1, replicate sets
[2] = system: Ba/F3 cells expressing KIF5B–RET^V804L; assay: Growth inhibition assay in Ba/F3 cells (CellTiter-Glo, 72 h); format: cell-based; conditions: replicate sets
Ba/F3 cells = assay: as above; format: cell-based
LC-2/ad cells = assay: Growth inhibition (alamarBlue, 96 h); format: cell-based, human; conditions: for raw viability signal (Source Data Fig. 3b-c): LC-2/Ad, replicate sets

Question: Which “Animal Weight (g), Mean” value ([1]; 3 mg/kg BID, day 4) does the source give for COc1ccc(CN2C3CC2CN(c2ccc(-c4cc(OCC(C)(C)O)cn5ncc(C#N)c45)cn2)C3)cn1 [Selpercatinib] here?
Answer: 28.1 g

Question: What about the “Animal Weight (g), Mean” value ([1]; 3 mg/kg BID, day 8) of the same compound?
Answer: 28.6 g

Question: What about the “Animal Weight (g), Mean” value ([1]; 3 mg/kg BID, day 11) of the same compound?
Answer: 28.6 g

Question: What about the “Animal Weight (g), Mean” value ([1]; 3 mg/kg BID, day 15) of the same compound?
Answer: 28.4 g

Question: And the “Animal Weight (g), Mean” value ([1]; 10 mg/kg BID, day 1)?
Answer: 27.7 g

Question: And the “Animal Weight (g), Mean” value ([1]; 10 mg/kg BID, day 4)?
Answer: 27.7 g

Question: What about the “Animal Weight (g), Mean” value ([1]; 10 mg/kg BID, day 8) of the same compound?
Answer: 28.2 g

Question: And the “Animal Weight (g), Mean” value ([1]; 10 mg/kg BID, day 11)?
Answer: 28.7 g

Question: What about the “Animal Weight (g), Mean” value ([1]; 10 mg/kg BID, day 15) of the same compound?
Answer: 28.6 g

Question: What about the “Animal Weight (g), Mean” value ([1]; 30 mg/kg BID, day 1) of the same compound?
Answer: 28.1 g

Question: And the “Animal Weight (g), Mean” value ([1]; 30 mg/kg BID, day 4)?
Answer: 27.9 g

Question: What about the “Animal Weight (g), Mean” value ([1]; 30 mg/kg BID, day 8) of the same compound?
Answer: 29.0 g

Question: What about the “Animal Weight (g), Mean” value ([1]; 30 mg/kg BID, day 11) of the same compound?
Answer: 29.6 g

Question: What about the “Animal Weight (g), Mean” value ([1]; 30 mg/kg BID, day 15) of the same compound?
Answer: 29.2 g

Question: And the “Animal Weight (g), Mean” value ([1]; 100 mg/kg BID, day 1)?
Answer: 26.8 g

Question: And the “Animal Weight (g), Mean” value ([1]; 100 mg/kg BID, day 4)?
Answer: 26.1 g

Question: What about the “Animal Weight (g), Mean” value ([1]; 100 mg/kg BID, day 8) of the same compound?
Answer: 23.3 g

Question: What about the “Animal Weight” value ([1]; LUAD-0077AS1 PDX, Selpercatinib 10 mg/kg BID, treatment day 0) of the same compound?
Answer: 24 g and 25 g and 21 g and 23 g (2×)

Question: And the “Animal Weight” value ([1]; LUAD-0077AS1 PDX, Selpercatinib 10 mg/kg BID, treatment day 4)?
Answer: 24 g (3×) and 21 g and 23 g

Question: What about the “Animal Weight” value ([1]; LUAD-0077AS1 PDX, Selpercatinib 10 mg/kg BID, treatment day 7) of the same compound?
Answer: 23 g (3×) and 21 g and 24 g

Question: What about the “Animal Weight” value ([1]; LUAD-0077AS1 PDX, Selpercatinib 10 mg/kg BID, treatment day 11) of the same compound?
Answer: 24 g (2×) and 23 g (2×) and 21 g

Question: What about the “Animal Weight” value ([1]; LUAD-0077AS1 PDX, Selpercatinib 10 mg/kg BID, treatment day 14) of the same compound?
Answer: 23 g and 24 g (2×) and 21 g and 25 g

Question: And the “Animal Weight” value ([1]; LUAD-0077AS1 PDX, Selpercatinib 10 mg/kg BID, treatment day 19)?
Answer: 25 g and 23 g and 22 g and 26 g and 24 g

Question: And the “Animal Weight” value ([1]; LUAD-0087AS2 PDX, Selpercatinib 30 mg/kg BID, treatment day 0)?
Answer: 27 g (4×) and 28 g

Question: What about the “Animal Weight” value ([1]; LUAD-0087AS2 PDX, Selpercatinib 30 mg/kg BID, treatment day 3) of the same compound?
Answer: 26 g (3×) and 28 g and 27 g

Question: What about the “Animal Weight” value ([1]; LUAD-0087AS2 PDX, Selpercatinib 30 mg/kg BID, treatment day 7) of the same compound?
Answer: 27 g (3×) and 26 g and 28 g

Question: What about the “Animal Weight” value ([1]; LUAD-0087AS2 PDX, Selpercatinib 30 mg/kg BID, treatment day 10) of the same compound?
Answer: 27 g (3×) and 26 g (2×)

Question: What about the “Animal Weight” value ([1]; LUAD-0087AS2 PDX, Selpercatinib 30 mg/kg BID, treatment day 14) of the same compound?
Answer: 26 g (3×) and 27 g (2×)

Question: What about the “Animal Weight” value ([1]; LUAD-0087AS2 PDX, Selpercatinib 30 mg/kg BID, treatment day 17) of the same compound?
Answer: 27 g (4×) and 26 g

Question: And the “Animal Weight” value ([1]; LUAD-0087AS2 PDX, Selpercatinib 30 mg/kg BID, treatment day 21)?
Answer: 28 g and 27 g (2×) and 26 g and 25 g

Question: And the “Animal Weight” value ([1]; LUAD-0087AS2 PDX, Selpercatinib 30 mg/kg BID, treatment day 24)?
Answer: 28 g (2×) and 27 g (2×) and 26 g

Question: What about the “Animal Weight” value ([1]; LUAD-0087AS2 PDX, Selpercatinib 30 mg/kg BID, treatment day 29) of the same compound?
Answer: 26 g (2×) and 27 g and 28 g (2×)

Question: And the “Animal Weight” value ([1]; LUAD-0087AS2 PDX, Selpercatinib 30 mg/kg BID, treatment day 32)?
Answer: 26 g (2×) and 28 g (3×)

Question: What about the “Animal Weight” value ([1]; LUAD-0087AS2 PDX, Selpercatinib 30 mg/kg BID, treatment day 35) of the same compound?
Answer: 26 g (2×) and 28 g and 27 g (2×)

Question: And the “Animal Weight” value ([1]; LUAD-0087AS2 PDX, Selpercatinib 30 mg/kg BID, treatment day 38)?
Answer: 23 g (2×) and 28 g and 29 g and 26 g

Question: And the “Animal Weight” value ([1]; LUAD-0087AS2 PDX, Selpercatinib 30 mg/kg BID, treatment day 42)?
Answer: 27 g (4×) and 26 g

Question: What about the “Animal Weight” value ([1]; LUAD-0087AS2 PDX, Selpercatinib 30 mg/kg BID, treatment day 45) of the same compound?
Answer: 28 g (3×) and 27 g (2×)

Question: What about the IC50 (LUAD-0002AS1 cells; Homo sapiens, 96 h, read-out: IC50 for Inhibition of Growth (95% CI)) of the same compound?
Answer: 3 nM

Question: What about the “raw viability signal (Source Data Fig. 3b-c)” value (“raw viability signal” for short) (LUAD-0002AS1 cells; 0.01 nM) of the same compound?
Answer: 16631.5 and 13192.5 and 12693

Question: What about the “raw viability signal” value (LUAD-0002AS1 cells; 0.1 nM) of the same compound?
Answer: 14296.3 and 14495.9 and 14138.2

Question: And the “raw viability signal” value (LUAD-0002AS1 cells; 1 nM)?
Answer: 14160.4 and 9635.41 and 11277.7

Question: What about the “raw viability signal” value (LUAD-0002AS1 cells; 10 nM) of the same compound?
Answer: 3799.84 and 3179.94 and 4108.28

Question: And the “raw viability signal” value (LUAD-0002AS1 cells; 100 nM)?
Answer: 2188.78 and 2790.7 and 3166.11

Question: And the “raw viability signal” value (LUAD-0002AS1 cells; 1000 nM)?
Answer: 1304.58 and 2278.18 and 2772.5

Question: And the “raw viability signal” value (LUAD-0002AS1 cells; 10000 nM)?
Answer: 935.372 and 1860.61 and 2356.9

Question: What about the GI50 ([2]; Ba/3-KIF5B-RET-V804L) of the same compound?
Answer: 8.67 nM and 7.06 nM

Question: And the GI50 ([2]; Mus musculus, BaF3, Ba/3-KIF5B-RET-V804L)?
Answer: 5.67 nM

Question: And the GI50 (Ba/F3 cells; Ba/F3 (parental), replicate Sets 1-3)?
Answer: 3870 nM and 3570 nM

Question: What about the GI50 (Ba/F3 cells; Mus musculus, BaF3, 72 h, read-out: GI50 value (Mean ± SD), Ba/F3, CellTiter-Glo, 72 h) of the same compound?
Answer: 3980 nM

Question: And the GI50 (Ba/F3 cells; Mus musculus, BaF3, Ba/F3 (parental), replicate Sets 1-3)?
Answer: 4490 nM

Question: What about the IC50 (LC-2/ad cells; Homo sapiens, LC-2-ad, 96 h, read-out: IC50 for Inhibition of Growth (95% CI)) of the same compound?
Answer: 12 nM

Question: And the “raw viability signal” value (LC-2/ad cells; 0.01 nM)?
Answer: 13499 and 23395.2

Question: What about the “raw viability signal” value (LC-2/ad cells; 0.1 nM) of the same compound?
Answer: 14768.6 and 22354.3

Question: And the “raw viability signal” value (LC-2/ad cells; 1 nM)?
Answer: 11358.1 and 22611.3

Question: And the “raw viability signal” value (LC-2/ad cells; 10 nM)?
Answer: 5849.16 and 13692

Question: What about the “raw viability signal” value (LC-2/ad cells; 100 nM) of the same compound?
Answer: 4303.48 and 6998.63

Question: And the “raw viability signal” value (LC-2/ad cells; 1000 nM)?
Answer: 4639.86 and 5076.98

Question: What about the “raw viability signal” value (LC-2/ad cells; 10000 nM) of the same compound?
Answer: 1761.41 and 1760.41
